Patent US11912682B2, “Isoindolinone compounds” (Monte Rosa Therapeutics, Inc., priority 2021, dated 2024)
Read-outs that look alike come from different tables or passages of the source.

Columns and labels:
[1] = target: IKZF1 (Ikaros) (Homo sapiens (Human), UniProt Q13422); assay: selectivity by Western blot in MM1S cells, IKZF1; assay type: cell-based; design: key to IKZF1 degradation: A represents a no degradation observed at 30 μM; B represents trace degradation at 30 μM (below 20%); C represents weak degradation at 30 μM (below 50%); D represents degradation at 30 μM (>90%); E represents degradation at 3 μM (>90%); F represents degradation at 0.3 μM (>90%); settings: for IKZF1 degradation: MM1S cells, 6 hours, 0.3, 3 and 30 μM
Experimental: (§1) MM1S cells were purchased from ATCC (cat. Number CRL-2974), sub-cultured in 90% RPMI 1640 with 10% FBS, supplemented with 1× P/S and incubated at 37° C., 5% CO2. Compounds were stored as 10 mM DMSO stock. For the assay, MM1S cells (3 million cells/well) were plated in 6-well plates and incubated over night. Cells were treated with respective compounds using a serial dilution: 0.3 μM, 3 μM and 30 μM as well as a vehicle only (DMSO) control for 6 hours. Media with suspension cells was subsequently transferred to 15 mL conical tubes, wells rinsed twice with ice-cold PBS and merged with cell suspension in respective 15 mL conical tube. Cells were spinned down, supernatant aspirated, pellets resuspended in ice-cold PBS and transferred to microtubes. Cells were spinned down, supernatant aspirated and pellets resuspended in 120 μL RIPA lysis buffer supplemented with protease and phosphatase inhibitors. Cell lysates were incubated on ice for 20 minutes followed by centrifugation at >20,000 xg for 5 min. Supernatants were transferred to fresh microtubes and stored at −80° C. Total protein concentration was determined using a BCA assay with a BSA standard curve and concentration of all samples was adjusted to 1 mg/mL. 25 μL 4× LDS sample buffer supplemented with 100 mM DTT was added to 75 μL sample. Samples were centrifuged (8,000 xg, 1 min) and incubated at 95° C. for 5 min followed by another centrifugation step (8,000 xg, 1 min). 20 μL of each sample was loaded on a 4-12% gel alongside a protein molecular weight marker. Gels were run in the presence of MOPS buffer at 80 Volts for 30 min, followed by 120 Volts for 1.5 h and proteins subsequently transferred onto nitrocellulose membranes at 20 Volts for 7 min using an iBlot2 Gel Transfer Device. Membranes were then cut horizontally into two pieces, covering 80-50 kDa and 50-25 kDa. Blocking the membranes was performed by gently shaking in 5% (w/v) skim milk in TSB-T for 1 hr at room temperature. All primary antibodies were used at a 1/1000 in 5% (w/v) BSA dissolved in TBST and incubated with membranes over night at 4° C. Anti-IKZF1 (Ikaros; D6N9Y; 14859S), anti-IKZF3 (Aiolos; D1C1E; 15103S) antibodies were purchased from Cell Signalling Technology, anti-ZFP91 antibody from Bethyl laboratories, anti-GSPT1 from Sigma Aldrich (HPA052488) and anti CK1alpha from AbCam (ab206652). After three washes with 1× TBST for 5 min, HRP-coupled secondary antibodies diluted in 5% (w/v) BSA/TBST (Goat Anti-Rb IgG, dil. 1/10,000; Goat Anti-Mouse IgG, dil. 1/5000) were added for 1 hr at room temperature. After three washes with 1× TBST (5 minutes each), membranes were incubated with ECL reagent for 1 min at room temperature. Chemiluminescence signals were then detected using a LAS-4000 system with default settings and signals quantified using Image Studio Lite software (version 5.2). Membrane parts previously incubated with antibody against CK1alpha were stripped off antibodies by incubating with stripping buffer for 30 minutes followed by three washed with TBST (5 min each), blocking with 5% (w/v) skim milk for 1 hr, and incubation with primary antibody against GAPDH overnight at 4° C. Subsequent washes, incubation with secondary antibody and signal acquisition were performed as described above.

[2] = target: Full length wild-type cereblon CRBN (Homo sapiens (Human), UniProt Q96SW2); assay: fluorescence polarization (FP) assay, cereblon binding
Outline: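 Full-length wild-type CRBN (80.0 nM as dispensed) preincubated 30 min at room temperature with compound in HEPES pH 8.0, NaCl, TCEP, 0.05% Tween 20.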

[3] = target: IKZF3 (Aiolos) (Homo sapiens (Human), UniProt Q9UKT9); assay: selectivity by Western blot in MM1S cells, IKZF3; assay type: cell-based; design: key to IKZF3 degradation: A represents a no degradation observed at 30 μM; B represents trace degradation at 30 μM (below 20%); C represents weak degradation at 30 μM (below 50%); D represents degradation at 30 μM (>90%); E represents degradation at 3 μM (>90%); F represents degradation at 0.3 μM (>90%); settings: for IKZF3 degradation: MM1S cells, 6 hours, 0.3, 3 and 30 μM
Experimental: as §1

[4] = system: human cell line NCI-H1770; assay: N-Myc-driven mouse xenograft model, NCI-H1770 (FIG. 3C); assay type: in vivo
[5] = target: GSPT1 (Homo sapiens (Human), UniProt P15170+Q96SW2); assay: GSPT1 degradation in cells treated with compound (FIG. 1A); assay type: cell-based; settings: cells treated with 0.3 µM
[6] = system: human cell line NCI-H526; assay: N-Myc-driven mouse xenograft model, NCI-H526 (FIG. 3D); assay type: in vivo
[7] = target: GSPT1 (Homo sapiens (Human), UniProt P15170); assay: GSPT1 degradation in tumors of treated mice (FIG. 3B); assay type: in vivo, mouse; settings: all three dose levels (1, 3, 6 mg/kg), compared to vehicle control
[8] = target: SALL (Homo sapiens (Human), UniProt Q9UJQ4); assay: SALL degradation in cells treated with compound (FIG. 1A); assay type: cell-based; settings: concentrations up to 30 µM
[9] = highest concentration tested of 30 μM
[10] = 6 mg/kg PO five days on and nine days off

Full length wild-type cereblon CRBN, sequence (Q96SW2 whole entry): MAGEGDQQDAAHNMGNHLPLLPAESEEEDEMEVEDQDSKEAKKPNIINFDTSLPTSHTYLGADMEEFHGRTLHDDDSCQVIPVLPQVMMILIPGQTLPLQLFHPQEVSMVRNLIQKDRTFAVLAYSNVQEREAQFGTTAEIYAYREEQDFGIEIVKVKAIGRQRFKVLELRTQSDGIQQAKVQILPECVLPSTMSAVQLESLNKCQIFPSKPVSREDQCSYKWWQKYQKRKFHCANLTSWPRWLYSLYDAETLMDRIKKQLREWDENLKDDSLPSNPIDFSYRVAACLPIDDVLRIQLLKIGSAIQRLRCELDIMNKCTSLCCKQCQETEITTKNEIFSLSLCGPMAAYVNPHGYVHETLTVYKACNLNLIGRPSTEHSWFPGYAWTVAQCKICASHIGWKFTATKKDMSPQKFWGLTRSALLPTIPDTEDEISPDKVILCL
IKZF3 (Aiolos), sequence (Q9UKT9 whole entry, looked up): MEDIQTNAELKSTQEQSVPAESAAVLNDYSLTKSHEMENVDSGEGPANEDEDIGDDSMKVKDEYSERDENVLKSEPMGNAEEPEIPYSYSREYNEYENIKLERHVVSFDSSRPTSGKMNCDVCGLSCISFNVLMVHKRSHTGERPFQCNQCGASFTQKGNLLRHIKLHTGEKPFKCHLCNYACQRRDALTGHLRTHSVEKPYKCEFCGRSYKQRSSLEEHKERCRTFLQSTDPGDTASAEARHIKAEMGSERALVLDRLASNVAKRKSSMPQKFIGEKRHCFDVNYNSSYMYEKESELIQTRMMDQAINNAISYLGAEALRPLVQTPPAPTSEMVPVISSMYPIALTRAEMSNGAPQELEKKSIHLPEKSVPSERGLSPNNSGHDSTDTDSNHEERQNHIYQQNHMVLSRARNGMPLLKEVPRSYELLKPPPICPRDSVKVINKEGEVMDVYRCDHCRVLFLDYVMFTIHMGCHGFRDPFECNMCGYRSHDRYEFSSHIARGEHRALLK
IKZF1 (Ikaros), sequence (Q13422 whole entry, looked up): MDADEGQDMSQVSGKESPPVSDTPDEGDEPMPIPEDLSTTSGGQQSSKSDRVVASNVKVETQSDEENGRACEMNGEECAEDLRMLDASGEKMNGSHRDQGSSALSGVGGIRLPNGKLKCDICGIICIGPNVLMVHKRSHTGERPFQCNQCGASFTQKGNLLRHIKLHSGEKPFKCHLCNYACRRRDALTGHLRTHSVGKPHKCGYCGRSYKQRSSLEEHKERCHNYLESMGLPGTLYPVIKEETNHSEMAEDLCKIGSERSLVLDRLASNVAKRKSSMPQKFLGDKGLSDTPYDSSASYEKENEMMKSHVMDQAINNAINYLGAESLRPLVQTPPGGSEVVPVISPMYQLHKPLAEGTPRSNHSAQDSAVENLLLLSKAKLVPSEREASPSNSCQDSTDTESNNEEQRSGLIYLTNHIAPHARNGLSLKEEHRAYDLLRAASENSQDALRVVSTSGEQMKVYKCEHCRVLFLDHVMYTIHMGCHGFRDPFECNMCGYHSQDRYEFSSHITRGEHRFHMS
GSPT1 (Homo sapiens (Human), UniProt P15170+Q96SW2), sequence (P15170 whole entry, looked up): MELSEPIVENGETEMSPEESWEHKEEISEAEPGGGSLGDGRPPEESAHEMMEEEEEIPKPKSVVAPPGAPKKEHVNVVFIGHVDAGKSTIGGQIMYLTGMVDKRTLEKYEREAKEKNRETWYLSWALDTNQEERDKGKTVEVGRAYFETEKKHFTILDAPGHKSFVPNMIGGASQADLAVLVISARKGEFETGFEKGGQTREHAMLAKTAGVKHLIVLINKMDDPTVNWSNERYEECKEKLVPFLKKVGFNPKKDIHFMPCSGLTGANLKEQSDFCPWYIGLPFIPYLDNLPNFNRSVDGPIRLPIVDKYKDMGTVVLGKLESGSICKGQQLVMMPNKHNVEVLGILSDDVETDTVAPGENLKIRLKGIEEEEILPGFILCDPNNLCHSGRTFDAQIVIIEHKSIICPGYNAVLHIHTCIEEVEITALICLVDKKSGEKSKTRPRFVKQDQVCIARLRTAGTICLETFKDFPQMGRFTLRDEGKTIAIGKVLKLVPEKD
GSPT1 (Homo sapiens (Human), UniProt P15170+Q96SW2), sequence (Q96SW2 whole entry, looked up): as the sequence (Q96SW2 whole entry) above
GSPT1 (Homo sapiens (Human), UniProt P15170+Q96SW2), sequence (Q16531 whole entry partner, looked up): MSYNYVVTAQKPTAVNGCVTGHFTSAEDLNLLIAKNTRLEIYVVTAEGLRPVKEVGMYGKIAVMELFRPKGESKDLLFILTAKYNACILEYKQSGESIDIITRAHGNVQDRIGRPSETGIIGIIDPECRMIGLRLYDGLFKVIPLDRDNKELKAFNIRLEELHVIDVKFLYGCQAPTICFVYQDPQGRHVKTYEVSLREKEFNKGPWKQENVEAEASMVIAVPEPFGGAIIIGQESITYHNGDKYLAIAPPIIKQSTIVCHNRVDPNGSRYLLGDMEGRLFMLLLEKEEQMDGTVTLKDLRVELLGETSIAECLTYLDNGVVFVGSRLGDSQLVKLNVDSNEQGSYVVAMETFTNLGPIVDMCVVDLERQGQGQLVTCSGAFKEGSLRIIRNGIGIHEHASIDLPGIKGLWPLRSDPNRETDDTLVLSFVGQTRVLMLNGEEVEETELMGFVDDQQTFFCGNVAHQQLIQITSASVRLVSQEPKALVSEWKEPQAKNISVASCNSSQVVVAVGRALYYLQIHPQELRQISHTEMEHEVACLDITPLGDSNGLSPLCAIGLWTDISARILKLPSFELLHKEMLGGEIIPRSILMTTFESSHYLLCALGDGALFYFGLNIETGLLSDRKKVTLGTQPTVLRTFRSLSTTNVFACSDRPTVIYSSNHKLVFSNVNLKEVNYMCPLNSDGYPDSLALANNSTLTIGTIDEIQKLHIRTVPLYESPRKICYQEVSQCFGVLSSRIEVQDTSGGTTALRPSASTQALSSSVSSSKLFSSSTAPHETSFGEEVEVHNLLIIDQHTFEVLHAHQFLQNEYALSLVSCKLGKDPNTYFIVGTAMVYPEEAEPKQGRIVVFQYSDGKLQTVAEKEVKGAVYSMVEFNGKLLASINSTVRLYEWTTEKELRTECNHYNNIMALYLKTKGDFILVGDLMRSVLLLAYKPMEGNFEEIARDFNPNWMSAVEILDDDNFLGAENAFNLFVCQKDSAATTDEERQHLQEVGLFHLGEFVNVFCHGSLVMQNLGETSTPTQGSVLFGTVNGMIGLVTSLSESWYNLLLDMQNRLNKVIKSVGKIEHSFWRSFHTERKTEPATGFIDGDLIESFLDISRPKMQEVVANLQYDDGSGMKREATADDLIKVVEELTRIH
GSPT1 (Homo sapiens (Human), UniProt P15170), sequence (P15170 whole entry): as the sequence (P15170 whole entry, looked up) above
GSPT1 (Homo sapiens (Human), UniProt P15170), sequence (Q96SW2 whole entry, further chain): as the sequence (Q96SW2 whole entry) above
GSPT1 (Homo sapiens (Human), UniProt P15170), sequence (Q16531 2-1140 partner): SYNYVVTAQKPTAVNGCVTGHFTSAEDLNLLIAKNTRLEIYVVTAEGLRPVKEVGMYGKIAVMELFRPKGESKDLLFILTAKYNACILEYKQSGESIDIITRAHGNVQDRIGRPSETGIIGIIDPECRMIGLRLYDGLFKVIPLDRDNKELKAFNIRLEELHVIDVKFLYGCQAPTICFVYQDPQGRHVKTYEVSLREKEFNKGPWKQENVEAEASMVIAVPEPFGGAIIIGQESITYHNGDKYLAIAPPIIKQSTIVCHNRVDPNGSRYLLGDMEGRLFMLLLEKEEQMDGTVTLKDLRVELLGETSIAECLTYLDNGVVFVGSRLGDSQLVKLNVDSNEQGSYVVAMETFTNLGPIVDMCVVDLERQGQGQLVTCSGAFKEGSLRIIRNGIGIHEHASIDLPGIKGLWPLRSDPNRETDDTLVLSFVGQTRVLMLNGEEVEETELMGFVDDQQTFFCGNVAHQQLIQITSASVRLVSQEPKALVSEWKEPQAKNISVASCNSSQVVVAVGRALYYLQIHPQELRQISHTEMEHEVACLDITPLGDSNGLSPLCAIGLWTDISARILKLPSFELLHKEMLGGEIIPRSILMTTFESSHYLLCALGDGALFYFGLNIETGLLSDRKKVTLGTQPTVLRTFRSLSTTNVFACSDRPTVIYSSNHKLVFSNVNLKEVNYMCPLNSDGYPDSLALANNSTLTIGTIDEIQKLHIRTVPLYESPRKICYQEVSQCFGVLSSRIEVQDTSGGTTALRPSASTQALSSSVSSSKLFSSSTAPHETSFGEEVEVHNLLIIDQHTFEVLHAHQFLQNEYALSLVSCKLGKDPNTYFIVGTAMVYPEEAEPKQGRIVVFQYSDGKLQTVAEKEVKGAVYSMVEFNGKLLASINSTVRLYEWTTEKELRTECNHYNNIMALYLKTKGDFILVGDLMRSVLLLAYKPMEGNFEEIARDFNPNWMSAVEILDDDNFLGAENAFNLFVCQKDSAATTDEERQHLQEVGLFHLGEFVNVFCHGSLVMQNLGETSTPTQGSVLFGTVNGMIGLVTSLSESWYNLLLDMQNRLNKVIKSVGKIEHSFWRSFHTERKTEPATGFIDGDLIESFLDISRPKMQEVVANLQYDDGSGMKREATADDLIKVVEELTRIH

CC(C)(C)c1ccc(NC(=O)OCc2ccc3c(c2)C(=O)N(C2CCC(=O)NC2=O)C3)cn1 (stereo not drawn) [Compound 43]
IKZF1 degradation [1]: A | IC50 ([2]; read-out: rFP IC50): > 1700 nM | IKZF3 degradation [3]: B (B represents trace degradation at 30 μM (below 20%))

Cc1ncc(NC(=O)OCc2ccc3c(c2)C(=O)N(C2CCC(=O)NC2=O)C3)cc1Cl (stereo not drawn) [Compound 6]
IKZF1 degradation [1]: A | IC50 ([2]; read-out: IC50 value): < 1100 nM | IKZF3 degradation [3]: B (B represents trace degradation at 30 μM (below 20%))

O=C1CCC(N2Cc3ccc(COC(=O)Nc4ccc(-c5ccccc5)nc4)cc3C2=O)C(=O)N1 (stereo not drawn) [Compound 42]
IKZF1 degradation [1]: A | IC50 ([2]; read-out: rFP IC50): > 1700 nM | IKZF3 degradation [3]: A

Cc1ccc(NC(=O)OCc2ccc3c(c2)C(=O)N(C2CCC(=O)NC2=O)C3)cc1Cl (stereo not drawn) [Compound 10]
IKZF1 degradation [1]: A | IKZF1 degradation (FIG. 1A) [1, 9]: none of the known the substrates IKZF1, IKZF3, SALL4, CK1alpha was degraded | tumor size (tumor volume) ([4]; 3 mg/kg PO once daily): tumor size decreased and remained so until the end of the study | tumor size (tumor volume) [4, 10]: tumor size decreased and remained so until the end of the study | body weight ([4]; oral administration): no body weight loss | effect on tumor growth (tumor volume) ([4]; oral administration): tumor growth inhibition | degradation of GSPT1 [5]: complete degradation | tumor size (tumor volume) ([6]; 3 mg/kg PO once daily): tumor size decreased and remained so until the end of the study | tumor size (tumor volume) [6, 10]: tumor size decreased and remained so until the end of the study | body weight ([6]; oral administration): no body weight loss | effect on tumor growth (tumor volume) ([6]; oral administration): tumor growth inhibition | IKZF3 degradation [3]: B (B represents trace degradation at 30 μM (below 20%)) | IKZF3 degradation (FIG. 1A) [3, 9]: none of the known the substrates IKZF1, IKZF3, SALL4, CK1alpha was degraded | degradation of GSPT1 in tumors [7]: complete degradation | degradation of SALL [8]: no induction of degradation

O=C1CCC(N2Cc3ccc(COC(=O)Nc4ccc(N5CCCCC5)nc4)cc3C2=O)C(=O)N1 (stereo not drawn) [Compound 15]
IKZF1 degradation [1]: A | IC50 ([2]; read-out: IC50 value): < 1100 nM | IKZF3 degradation [3]: B (B represents trace degradation at 30 μM (below 20%))
